Measured values reported in patent publication US20260132128A1, “COMPOUND FOR RECOVERING P53 MUTATION FUNCTION AND USE THEREOF” (SHENZHEN ZHONGGE BIOLOGICAL TECHNOLOGY CO., LTD., priority 2022, published 2026).
Marks after values point to notes of the source that are not given here.

Assays:
NUGC-3 cells = assay: NUGC-3 cell proliferation assay (CTG); type: cell-based, human; conditions: for GI50: 6 days, CTG; for Compound GI50 (nM)/Reference compound GI50 (nM): multiple ratio of GI50 of the compound to the reference compound
Procedure: In order to detect the inhibitory effect of the aforementioned compounds on the proliferation ability of NUGC-3 cells, 250 NUGC-3 cells (Nanjing Cobioer Biosciences Co., Ltd., CBP60492) were seeded into a 384-well plate (Corning 3765), 35 μL per well, and incubated overnight in a constant temperature incubator at 37° C. and 5% CO2. Then, 40 nL of the compound was added to the 384-well plate using an Echo 655 Liquid Handler, with a maximum final concentration of 10 μM, 1:3 serial dilutions, and a total of 10 doses. The culture was performed at 37° C. and 5% CO2 for 6 days. The plate was taken out from the incubator and equilibrated at room temperature for 10 minutes. 20 μL of CTG (Promage G7572) was added to each well of the plate according to the platemap. The plate was centrifuged at 1000 rpm for 1 min. The lysis of cells was induced by mixing on a shaker for 2 min. The plate was centrifuged at 1000 rpm for 1 min. Incubation was performed at room temperature for 10 min to stabilize luminescence signals. Luminescence values were recorded by Envision (PerkinElmer 2105-0020). GraphPad 9.0 was used to fit the inhibition rate and compound concentration into a nonlinear regression curve (dose response-variable slope) to calculate GI50, inhibition rate={1−(A−B)/(C−B)}*100%, A=signal value of compound; B=average signal of blank control; C=average signal of negative control (wherein negative control was 0.1% DMSO).

p53 Y220C [1] = target: T1, p53 Y220C (Homo sapiens, UniProt P04637, Y220C); assay: DNA binding test (HTRF): binding of P53Y220C protein to DNA; type: biochemical; conditions: multiple ratio of EC50 of the compound to the reference compound, DNA binding test
T1 construct: a truncated mutant containing only amino acids 94-312 of p53; made in house; host or cells: E. coli
Procedure: (§1) In order to detect the ability of the aforementioned compounds to increase the binding of P53Y220C protein to DNA, the binding activity of p53 Y220C was measured by homogeneous time-resolved fluorescence (HTRF). Recombinant His-tagged p53 Y220C for HTRF measurement was expressed in bacteria E. coli. The recombinant protein was a truncated mutant containing only amino acids 94-312 of p53, and its sequence was […] […] VEGNLR […] TFRh[…] […]. The sense strand of the DNA double strand was 5′-[…]-3′, with a biotin tag at the 5′ end for activity assay, and the antisense strand was 5′-[…]-3′ 40 mL of assay buffer (20 mM Tris HCL, pH 7.5, 50 mM NaCl, 2 mM MgCl2, 0.02% Tween 20, 0.01% BSA, 1 mM DTT) was prepared. 10 mM compound was prepared and subjected to 3-fold dilution to obtain 10 dose gradient dilutions of the compound. 20 nL of the compound was added to a 384-well assay plate (PerkinElmer 6007299) using an Echo 655 Liquid Handler. P53Y220C protein was dissolved in assay buffer to reach a final concentration of 150 nM, and 5 μL thereof was added to each well, and incubated at room temperature for 5 min. DNA was dissolved in assay buffer to reach a final concentration of 150 nM, and 5 μL thereof was added to each well, and incubated at room temperature for 15 min. Anti 6HIS-XL665 (Cisbio 61HISXLB) was dissolved in assay buffer to reach a final concentration of 20 nM, and 5 μL thereof was added to each well. Streptavidin-Eu cryptate (Cisbio 610SAKLA) was dissolved in assay buffer to reach a final concentration of 0.625 nM, and 5 μL thereof was added to each well, and incubated at 27° C. for 1 hour. The plate was then read for signal values on an Envision (PerkinElmer 2105-0020) plate reader at 665 nm and 615 nm, respectively. […] Activation rate={(A-C)/(C)}*100%, A=(signal value at 665 nm/signal value at 615 nm); C=average signal of negative control (wherein, negative control referred to 0.1% DMSO).

p53 Y220C [2] = target: T2, p53 Y220C (Homo sapiens, UniProt P04637, P309S/R273H/Y220C); assay: as above; type: biochemical; conditions: HTRF, activation of p53 Y220C (aa 94-312) binding to biotin DNA
T2 construct: a truncated mutant containing only amino acids 94-312 of p53; made in house; host or cells: E. coli
Procedure: as §1

| Structure (SMILES) | GI50 (NUGC-3 cells; Homo sapiens, NUGC-3, 144 h) [nM] | Compound GI50 (nM)/Reference compound GI50 (nM) (NUGC-3 cells) | Compound EC50 (nM)/Reference compound EC50 (nM) (p53 Y220C [1]) | EC50 (p53 Y220C [2]) [nM] | GI50 (NUGC-3 cells) [nM] |
| --- | --- | --- | --- | --- | --- |
| CNC(=O)c1ccc(NCC#Cc2nc3c(NC4CCN(C(C)C)CC4F)cccn3c2CC(F)(F)F)c(OC)c1 (stereo not shown) [Compound 20] | 1000 to 5000 | C (C: GI50 of the compound ≥ 3 * GI50 of the reference compound) | C (C: EC50 of the compound≥3*EC50 of the reference compound) | 500 to 1000 |  |
| [2H]C([2H])([2H])NC(=O)c1ccc(NCC#Cc2cc3c(NC4CCC(N5CC6(COC6)C5)CC4F)cccn3c2CC(F)(F)F)c(OC2CC2)c1 (stereo not shown) [Compound 76d] | < 1000 | A (A: GI50 of the compound ≤ GI50 of the reference compound) | A (A: EC50 of the compound≤EC50 of the reference compound) | < 100 |  |
| Cc1cc[nH]c1C(=O)NCC#Cc1nc2c(NC3CCN(C)CC3)cccn2c1CC(F)(F)F [Compound 28] |  | C (C: GI50 of the compound ≥ 3 * GI50 of the reference compound) | C (C: EC50 of the compound≥3*EC50 of the reference compound) | 500 to 1000 |  |
| COc1cc(C(=O)NC2CCOCC2)ccc1NCC#Cc1nc2c(NC3CCN(C)CC3)cccn2c1CC(F)(F)F [Compound 29] | 1000 to 5000 | C (C: GI50 of the compound ≥ 3 * GI50 of the reference compound) | C (C: EC50 of the compound≥3*EC50 of the reference compound) | 100 to 500 |  |
| COc1cc(C#N)ccc1NCC#Cc1nc2c(NC3CCN(C)CC3)cccn2c1CC(F)(F)F [Compound 11] |  | C (C: GI50 of the compound ≥ 3 * GI50 of the reference compound) | B (B: EC50 of the reference compound<EC50 of the compound≤3.0*EC50 of the reference compound) | 100 to 500 |  |
| CN1CCC(Nc2cccn3c(CC(F)(F)F)c(-c4nnc(CNC(=O)c5cnn(Cc6ccccc6)c5)s4)nc23)CC1 [Compound 23] | 1000 to 5000 | C (C: GI50 of the compound ≥ 3 * GI50 of the reference compound) | B (B: EC50 of the reference compound<EC50 of the compound≤3.0*EC50 of the reference compound) | 100 to 500 |  |
| CNC(=O)c1ccc(NCC#Cc2nc3c(NC4CC[C@@H](N5CCC5)C[C@@H]4F)cccn3c2CC(F)(F)F)c(OC)c1 (stereo partly shown) [Compound 40] | < 1000 | B (B: GI50 of the reference compound < GI50 of the compound ≤ 3.0 * GI50 of the reference compound) | B (B: EC50 of the reference compound<EC50 of the compound≤3.0*EC50 of the reference compound) | < 100 |  |
| COc1cc(C(=O)N2CCC2)ccc1NCC#Cc1nc2c(N[C@@H]3CC[C@@H](N4CC5(COC5)C4)C[C@@H]3F)cccn2c1CC(F)(F)F [Compound 51] |  | C (C: GI50 of the compound ≥ 3 * GI50 of the reference compound) | A (A: EC50 of the compound≤EC50 of the reference compound) | < 100 |  |
| CNC(=O)c1ccc(NCC#Cc2nc3c(NC4CCN(C)CC4)cccn3c2CC(F)(F)F)c(F)c1 [Compound 13] | 1000 to 5000 | C (C: GI50 of the compound ≥ 3 * GI50 of the reference compound) | B (B: EC50 of the reference compound<EC50 of the compound≤3.0*EC50 of the reference compound) | 100 to 500 |  |
| CNC(=O)c1ccc(NCC#Cc2nc3c(N[C@@H]4CCN(CCOC)C[C@@H]4F)cccn3c2CC(F)(F)F)c(OC)c1 [Compound 21] | 1000 to 5000 | C (C: GI50 of the compound ≥ 3 * GI50 of the reference compound) | C (C: EC50 of the compound≥3*EC50 of the reference compound) | 100 to 500 |  |
| CN1CCC(Nc2cccn3c(CC(F)(F)F)c(-c4nnc(CNC(=O)c5ccn(C(C)(C)C)c5)s4)nc23)CC1 [Compound 19] | ≥ 5000 | C (C: GI50 of the compound ≥ 3 * GI50 of the reference compound) | B (B: EC50 of the reference compound<EC50 of the compound≤3.0*EC50 of the reference compound) | 100 to 500 |  |
| COc1cc(S(N)(=O)=O)ccc1NCC#Cc1nc2c(NC3CCN(C)CC3)cccn2c1CC(F)(F)F [Compound 12] | ≥ 5000 | C (C: GI50 of the compound ≥ 3 * GI50 of the reference compound) | B (B: EC50 of the reference compound<EC50 of the compound≤3.0*EC50 of the reference compound) | 100 to 500 |  |
| COc1cc(S(C)(=N)=O)ccc1NCC#Cc1nc2c(NC3CCN(C)CC3)cccn2c1CC(F)(F)F (stereo not shown) [Compound 15] | < 1000 | C (C: GI50 of the compound ≥ 3 * GI50 of the reference compound) | C (C: EC50 of the compound≥3*EC50 of the reference compound) | 100 to 500 |  |
| CNC(=O)c1ccc(NCC#Cc2nc3c(NC4CCC(N5CC6CCC(C5)O6)CC4)cccn3c2CC(F)(F)F)c(OC)c1 (stereo not shown) [Compound 34] |  | C (C: GI50 of the compound ≥ 3 * GI50 of the reference compound) | C (C: EC50 of the compound≥3*EC50 of the reference compound) | 100 to 500 |  |
| CNC(=O)c1ccc(NCC#Cc2nc3c(NC4CCC(N5CC6(COC6)C5)CC4F)cccn3c2CC(F)(F)F)c(OC)c1 (single isomer, unassigned) [Compound 35-6j] |  | C (C: GI50 of the compound ≥ 3 * GI50 of the reference compound) | C (C: EC50 of the compound≥3*EC50 of the reference compound) | < 100 | < 1000 |
| CNC(=O)c1ccc(NCC#Cc2nc3c(NC4CCC(N5CC6(COC6)C5)CC4F)cccn3c2CC(F)(F)F)c(OC)c1 (single isomer, unassigned) [Compound 35-6g] |  | C (C: GI50 of the compound ≥ 3 * GI50 of the reference compound) | C (C: EC50 of the compound≥3*EC50 of the reference compound) | 100 to 500 | ≥ 5000 |
| COc1cc(P(C)(C)=O)ccc1NCC#Cc1nc2c(N[C@@H]3CCN(C)C[C@@H]3F)cccn2c1CC(F)(F)F [Compound 14] | 1000 to 5000 | B (B: GI50 of the reference compound < GI50 of the compound ≤ 3.0 * GI50 of the reference compound) | B (B: EC50 of the reference compound<EC50 of the compound≤3.0*EC50 of the reference compound) | 100 to 500 |  |
